According to patent publication US20140303386A1, “COMPOSITIONS AND METHODS FOR ENHANCING LIPID PRODUCTION IN […] INDUCTION OF CELL CYCLE ARREST” (RUTGERS, THE STATE UNIVERSITY OF NEW JERSEY, priority 2011, published 2014):

Experiments:
Assay type in all cases: cell-based
[1] = system: marine diatom Phaeodactylum tricornutum; experiment: Cell cycle analysis (propidium iodide DNA stain, flow cytometry); settings: higher dose of inhibitor
Protocol: (§1) Cultures were grown in continuous light at approximately 70 μmol quanta m^−2s^−1, in nutrient-replete conditions (F/2 media). […] The CDK inhibitor was applied when cells were growing exponentially (cell concentration was between 250,000-700,000 cells/ml).

[2] = system: marine diatom Phaeodactylum tricornutum; experiment: Fatty acid content / synthesis per cell
Protocol: as §1

[3] = system: marine diatom Phaeodactylum tricornutum; experiment: Protein synthesis in treated cells; settings: treated vs untreated cells
Protocol: as §1

[4] = system: marine diatom Phaeodactylum tricornutum; experiment: Photosynthetic health (Fv/Fm, chlorophyll per cell, a*); settings: treated vs untreated cells
Protocol: as §1

In the case of Nc1nc(OCC2CCCCC2)c2nc[nH]c2n1 [NU 2058, 6-(Cyclohexylmethoxy)-9H-purin-2-amine], the “percentage of cells arrested in G1” value [1] is reported as “higher percentage of cells arrested in G1”, the “increase in fatty acid synthesis compared to untreated cells” value ([2]; 7 μM, over a period of one day) is reported as 80% and the “fatty acid content per cell” value ([2]; higher dose of inhibitor) is reported as “higher fatty acid content per cell”. For the same compound, the “protein synthesis, lower than in untreated cells” value [3] was “about 18%” and the “photosynthetic capacity (Fv/Fm, chlorophyll per cell, a*)” value [4] was “no appreciable differences”.
